From US5942532A, “2-substituted phenyl-benzimidazole antibacterial agents” (Ortho Pharmaceutical Corporation, priority 1997, dated 1999)

Biological target: T1, Kinase A and Spo0F (Bacillus subtilis, UniProt P16497)
T1 construct: made in house; host or cells: recombinant E. coli
T1 sequence (P16497 1-606): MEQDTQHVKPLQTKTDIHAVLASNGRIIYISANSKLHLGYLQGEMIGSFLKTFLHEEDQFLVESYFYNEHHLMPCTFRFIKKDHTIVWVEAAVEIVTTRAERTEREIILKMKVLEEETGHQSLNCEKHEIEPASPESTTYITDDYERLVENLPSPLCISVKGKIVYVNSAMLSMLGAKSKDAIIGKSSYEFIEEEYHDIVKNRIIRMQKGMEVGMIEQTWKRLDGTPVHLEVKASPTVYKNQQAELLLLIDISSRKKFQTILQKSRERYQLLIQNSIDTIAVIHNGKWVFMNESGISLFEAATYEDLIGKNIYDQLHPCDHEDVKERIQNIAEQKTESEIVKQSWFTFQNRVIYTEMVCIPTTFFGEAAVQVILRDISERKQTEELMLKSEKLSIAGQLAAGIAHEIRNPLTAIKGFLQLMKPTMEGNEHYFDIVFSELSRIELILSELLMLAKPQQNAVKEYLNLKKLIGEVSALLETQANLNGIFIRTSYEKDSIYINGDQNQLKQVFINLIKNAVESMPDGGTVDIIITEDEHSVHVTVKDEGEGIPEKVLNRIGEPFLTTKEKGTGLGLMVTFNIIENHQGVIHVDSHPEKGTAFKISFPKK
Experiment: Autophosphorylation of Kinase A and Transphosphorylation of Spo0F Assay (HPK in vitro assay)
Format: biochemical
Details: Table 2, KinA/Spo0F phosphorylation, in µM
Description: Autophosphorylation of Kinase A and Transphosphorylation of Spo0F Assay
To study the effect of the compounds of the present invention on the signal transduction process in bacteria, the inhibiting effect of the compounds on the sporulation operon proteins Kinase A and Spo0F was examined. Specifically, the inhibition of autophosphorylation of Kinase A and the transphosphorylation of Spo0F was determined in the following assays. The Spo0F response regulator is the primary substrate for phosphorylation by the protein kinase, Kin A, involved in the sporulation process in bacteria. See D. Burbulys, K. A. Trach, J. A. Hoch, Cell, 64, 545-552 (1991). Spo0F and KinA were prepared from recombinant E. coli overexpressing the proteins (J. Cavanagh et al, Amino Acids, 6, 131-140 (1994) and references therein).
The following stock reagents were either prepared and used promptly or stored at the indicated temperature:
8×Salts: 2 M KCl (5 mL), 1 M MgCl2 (800 mL), 1 M CaCl2 (100 mL), 10 mg/mL phenylmethylsulfonyl fluoride (200 mL), 1 M dithioreitol (50 mL), 0.25 M Na2 EDTA (32 mL) and H2 O 3.82 mL (-20° C.)
5×Loading Dye: 0.5M TRIS-HCl, pH 6.8 (7.5 mL), 10% SDS (2 mL) 0.1% bromophenol blue (0.5 mL), 100% glycerol (3 mL) and 12.5 M 2-mercaptoethanol (0.3 mL)
1-1.3 mg/mL KinA: 15 mM TRIS-HCl, pH 8.0, 6 mM KCl; 4 mM 2-mercaptoethanol;40% glycerol (-20° C.)
1 mg/mL Spo0F: 17.5 mM TRIS-HCl, pH 8.0; 0.7 mM KCl; 0.7 mM MgCl2; 0.7 mM CaCl2; 5 mM 2-mercaptoethanol; 30% glycerol (-20° C.)
5% Stacking Gel: 40% 29:1 acrylamide:bis acrylamide (1.25 mL), 0.5 M TRIS-HCl, pH 6.8 (2.5 mL), 10% SDS (0.1 mL), D-H2 O (6.15 mL) 10% ammonium persulfate (100 mL) and TEMED (25 mL)
SDS Running Buffer: TRIS-BASE (3.02 g), glycine (14.4 g), SDS (1 g), D-H2 O (to 1 L)
The reaction mixture was prepared from 8×Salts (87 μL), 1M TRIS, pH 8 (118 μL), 50% glycerol (63 μL), Spo0F (14.1 μL) and KinA (7.0 μL). Microcentrifuge tubes were charged with the reaction mixture (18.5 μL) and a 1.0 mM solution of the test compound in 5% DMSO (18.5 μL), and incubated for 15 min on ice. 100 mM ATP solution (3.0 μl, containing 625 μCi [^32 P]ATP) was added, and the mixture left for 10 minutes at room temperature. The reaction was quenched with 5× loading dye (10 μL per tube) and the samples were loaded on a prepared 5% Stacking Gel, or stored on dry ice until ready for use. The prepared wells were filled with SDS Running Buffer, samples were loaded into the wells, and 80 volts were applied to the gel until the dye front reached the bottom of the stacking gel. The voltage was then increased to 250 volts until electrophoresis was complete. Radioactive bands in the gel corresponding to phosphorylated KinA and Spo0F were imaged and quantitated with a phosphoimager.
If either enzyme was inhibited (as evidenced by the absence of labelled protein in the developed gel), an IC50 was calculated by running the assay with a range of inhibitor concentrations from 1 to 500 μM. After electrophoresis of the reaction mixtures, percent inhibition was determined by measuring the concentration of radioactive phosphorus with a phosphoimager and calculating the values using a software program (BioRad Molecular Analyst).

IC50	SMILES
11.4	N=C(N)c1ccc2[nH]c(-c3ccc(Oc4ccc(Cl)c(Cl)c4)cc3)nc2c1 [Example 60]
58	N=C(N)c1cc([N+](=O)[O-])c2[nH]c(-c3ccc(Oc4ccccc4)cc3)nc2c1 [Example 61]
19	N=C(N)c1cc(N)c2[nH]c(-c3ccc(Oc4ccccc4)cc3)nc2c1 [Example 62]

Same assay, conditions: Table 3, KinA/Spo0F phosphorylation, read-out: IC50

IC50	SMILES
53 µM	N=C(N)c1ccc2[nH]c(-c3cccc(Oc4ccccc4)c3)nc2c1 [Example 63]
48 µM	N=C(N)c1ccc2[nH]c(-c3cccc(Oc4cccc(C(F)(F)F)c4)c3)nc2c1 [Example 64]
33 µM	Cc1ccc(Oc2cccc(-c3nc4cc(C(=N)N)ccc4[nH]3)c2)cc1 [Example 65]
32 µM	N=C(N)c1ccc2[nH]c(-c3cccc(Oc4cc(Cl)cc(Cl)c4)c3)nc2c1 [Example 66]
32 µM	N=C(N)c1ccc2[nH]c(-c3cccc(Oc4ccc(Cl)c(Cl)c4)c3)nc2c1 [Example 67]
31.6 µM	CC(C)(C)c1ccc(Oc2cccc(-c3nc4cc(C(=N)N)ccc4[nH]3)c2)cc1 [Example 68]
28 µM	N=C(N)c1ccc2[nH]c(-c3cccc(Oc4ccc(Cl)cc4)c3)nc2c1 [Example 69]
69.2 µM	COc1ccc(Oc2cccc(-c3nc4cc(C(=N)N)ccc4[nH]3)c2)cc1 [Example 70]

Same assay, conditions: Table 4, KinA/Spo0F phosphorylation, read-out: IC50

IC50	SMILES
17.3 µM	N=C(N)c1ccc2nc(-c3ccc4oc5ccccc5c4c3)[nH]c2c1 [Example 71]
64.3 µM	N=C(N)c1ccc2nc(-c3ccc4c(c3)Cc3ccccc3-4)[nH]c2c1 [Example 72]
22.0 µM	CCn1c2ccccc2c2ccc(-c3nc4ccc(C(=N)N)cc4[nH]3)cc21 [Example 73]
120 µM	N=C(N)c1ccc2nc(-c3ccc4ccccc4c3)[nH]c2c1 [Example 74]
127 µM	N=C(N)c1ccc2nc(-c3ccc4ccccc4c3O)[nH]c2c1 [Example 75]
85 µM	N=C(N)c1ccc2nc(-c3cc4c5c(c3)CCCN5CCC4)[nH]c2c1 [Example 76]
18.5 µM	N=C(N)c1ccc2nc(-c3cc4c5c(c3O)CCCN5CCC4)[nH]c2c1 [Example 77]
114 µM	CN1c2ccccc2C(C)(C)C12C=Cc1cc(-c3nc4ccc(C(=N)N)cc4[nH]3)ccc1O2 (centres unmarked) [Example 78]

Same assay, conditions: Table 5, KinA/Spo0F phosphorylation, in µM

IC50	SMILES
241	N=C(N)c1ccc(Oc2ccc(-c3nc4ccccc4[nH]3)cc2)cc1 [Example 79]
94	N=C(N)c1ccc2nc(-c3ccc(Oc4ccc5[nH]cnc5c4)cc3)[nH]c2c1 [Example 80]

Further lines, the compound ahead of its results:

SMILES	IC50
N=C(N)c1ccc2nc(-c3ccc(N4CCN(c5ccccc5)CC4)cc3)[nH]c2c1 [Example 81]	26
N=C(N)Cn1c(-c2ccc(N(c3ccccc3)c3ccccc3)cc2)nc2ccc(C(=N)N)cc21 [Example 82]	22

Same assay, conditions: Table 6, KinA/Spo0F phosphorylation, in µM

IC50	SMILES
112.4	c1ccc(Oc2ccc(-c3nc4ccc(C5=NCCN5)cc4[nH]3)cc2)cc1 [Example 83]
32.3	c1ccc(Oc2ccc(-c3nc4ccc(-c5nc6ccccc6[nH]5)cc4[nH]3)cc2)cc1 [Example 84]
4	CC(C)(C)c1cc(-c2nc3ccc(C4=NCCN4)cc3[nH]2)c(O)c(C(C)(C)C)c1 [Example 85]
32	CC(C)(C)c1cc(-c2nc3ccc(C4=NCCCN4)cc3[nH]2)c(O)c(C(C)(C)C)c1 [Example 86]
29	CC(C)(C)c1cc(-c2nc3ccc(C4=NCCCCN4)cc3[nH]2)c(O)c(C(C)(C)C)c1 [Example 87]
12	CC1(C)CN=C(c2ccc3nc(-c4cc(C(C)(C)C)cc(C(C)(C)C)c4O)[nH]c3c2)N1 [Example 88]
152	CC(C)(C)c1cc(-c2nc3ccc(N)cc3[nH]2)c(O)c(C(C)(C)C)c1 [Example 90]
4	CC(C)(C)c1cc(-c2nc3ccc(CN)cc3[nH]2)c(O)c(C(C)(C)C)c1 [Example 91]

Same assay, conditions: Table 6, KinA/Spo0F phosphorylation, read-out: IC50

SMILES	IC50
CC(C)(C)c1cc(-c2nc3ccc(C(=O)O)cc3[nH]2)c(O)c(C(C)(C)C)c1 [Example 89]	86 µM
